Patent US20200171030A1, “DUAL INHIBITORS OF ALK5 AND P38A MAP KINASE” (INTEGRAL BIOSCIENCES PRIVATE LIMITED, priority 2018, published 2020)
Structures can show the parent of a compound that is named as a salt. Where two headings read alike, the source gives them in different places.

Assays:
Panc-1 = experiment: Cell viability assay (resazurin, 96 hr) in Panc-1; format: cell-based; details: Homo sapiens; Panc-1 pancreatic cell line, 96 hr exposure; read-out: Panc-1_Cell Viability_IC50
Experimental: (§1) Cell Viability Assay in MIA PaCa-2 and Panc-1
(§2) MIA PaCa-2 (ATCC® CRL-1420™) and Panc-1 (CRL-1469™), both pancreatic cell lines were seeded in their respective medium (DMEM, Cat #10569044 with 10% FBS, Cat #16000044; Gibco for Panc-1 and an additional 2.5% Horse Serum, Cat #16050122; Gibco for MIA PaCa-2) at a cell count of 3000 cells per 100 μl per well in a 96 well edge plate (167425; ThermoFisher). Cells were allowed to grow at 37° C. for 24 hr in 5% CO2 (culture conditions) in a Nuaire incubator (humidified). Serially diluted compounds (100 μl) were added to the culture plate 24 hr later and the cultures (MIA PaCa-2 and Panc-1) were further incubated in culture conditions for 96 hr. Experiment was terminated at the completion of 96 hr exposure to the drug by replacing the medium with 100 μl of 1 mM of resazurin (R7017; Sigma) prepared in culture medium and the plates were further incubated in culture conditions for 4 hr. Fluorescence was then measured using a multimodal plate reader (Biotek Synergy Neo) at an excitation wavelength of 535 nm and emission wavelength of 590 nm to obtain relative fluorescence units. Data analysis was done by subtracting the background fluorescence (only medium blank) value from each reading and then normalizing with the vehicle control (DMSO treated cells) to obtain percent survival/proliferation. Percent survival at different doses was used to calculate IC50 by fitting the curve to the “four-parameter variable slope logistic model” using Prism Graph Pad.

MAPK14/p38α kinase = biological target: T1, MAPK14/p38α kinase (Homo sapiens, UniProt Q16539); experiment: MAPK14/p38α kinase assay (LanthaScreen TR-FRET); format: biochemical
T1 construct: purchased ThermoFisher PV3304
T1 sequence (Q16539 whole entry): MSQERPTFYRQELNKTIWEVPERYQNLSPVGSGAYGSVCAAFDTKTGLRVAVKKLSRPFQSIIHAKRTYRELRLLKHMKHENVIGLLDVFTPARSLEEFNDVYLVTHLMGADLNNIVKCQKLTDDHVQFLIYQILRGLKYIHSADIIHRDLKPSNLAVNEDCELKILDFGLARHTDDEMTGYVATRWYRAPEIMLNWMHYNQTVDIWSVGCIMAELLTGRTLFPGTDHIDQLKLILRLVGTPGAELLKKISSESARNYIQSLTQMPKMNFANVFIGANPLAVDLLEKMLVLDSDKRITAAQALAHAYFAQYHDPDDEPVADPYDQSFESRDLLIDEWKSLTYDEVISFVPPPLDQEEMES
Experimental: MAPK14/p38α Kinase Assay for IC50 Determination:
IC50 values of compounds against MAPK14/P38α kinase were determined by Lanthascreen based TR-FRET assay. Kinase reactions were performed in a 10 μL volume in low-volume 384-well plates. The concentration of substrate was maintained at 400 nM in the assay, and the kinase reaction buffer (1×; Cat # PV3189, ThermoFisher) consisted of 50 mM HEPES pH 7.5, 0.01% BRIJ-35, 10 mM MgCl2, and 1 mM EGTA. Serially diluted compounds (3-fold) in DMSO (0.5% in final reaction) were incubated with cocktail of MAPK14/p38α kinase (20 ng/ml; Cat # PV3304, ThermoFisher), Substrate GFP-ATF2 (19-96), (0.4 μM; Cat # PV4445, ThermoFisher), ATP (90 μM; Cat # PV3227, ThermoFisher) and buffer. Kinase reactions were allowed to proceed for 1 hour at room temperature before EDTA (10 mM; Cat # P2825, ThermoFisher) and LanthaScreen™ Tb-antipATF2 (pThr71) Antibody (2 nM; Cat # PV4451, ThermoFisher) in TR-FRET dilution buffer (IX; Cat # PV3574, ThermoFisher) were added. The plate was allowed to incubate at room temperature for 30 minutes before being read on a BMG Pherastar plate reader using the LanthaScreen™ filter block for LanthaScreen™ TR-FRET.
The resulting TR-FRET emission ratio was plotted against the concentration of inhibitor, and the data was fit to a sigmoidal dose-response curve with a variable slope. The IC50 for the inhibitor was calculated from the curve.

TGFBR1 (ALK5) = biological target: T2, TGFBR1 (ALK5) (Homo sapiens, UniProt P36897); experiment: ALK5 kinase assay (LanthaScreen Terbium labeled TR-FRET); format: biochemical
T2 sequence (P36897 34-503): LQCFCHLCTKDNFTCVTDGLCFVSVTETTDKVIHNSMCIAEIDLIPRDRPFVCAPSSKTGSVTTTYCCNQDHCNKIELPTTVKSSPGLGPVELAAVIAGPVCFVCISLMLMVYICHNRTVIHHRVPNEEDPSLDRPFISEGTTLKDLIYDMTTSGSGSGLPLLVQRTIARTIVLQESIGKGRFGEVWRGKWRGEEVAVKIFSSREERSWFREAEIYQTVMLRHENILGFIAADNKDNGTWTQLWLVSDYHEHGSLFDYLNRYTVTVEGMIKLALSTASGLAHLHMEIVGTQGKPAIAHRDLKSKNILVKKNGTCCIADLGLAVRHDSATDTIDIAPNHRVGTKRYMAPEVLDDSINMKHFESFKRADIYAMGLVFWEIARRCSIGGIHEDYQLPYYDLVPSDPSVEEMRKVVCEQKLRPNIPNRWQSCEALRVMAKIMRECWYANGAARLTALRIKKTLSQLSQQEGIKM
Experimental: ALK5 Kinase Assay for IC50 Determination:
IC50 values of compounds against TGFβ kinase was determined by LanthaScreen™ Terbium Labeled TR-FRET assay. Kinase assays were performed in IX kinase buffer (# PV6135, Invitrogen, Life Technologies Grand Island, N.Y.) where total reaction volume was 10 μL in low-volume 384-well plates (#4511,Corning). Serially diluted compounds (3-fold) were incubated with TGFβ kinase (6 nM) for 10 min, following which a mixture of ATP (10 μM) (# A1852, Sigma, St-Louis, Mo.) and fluorescent-PolyGT substrate (200 nM) (# PV3610, Invitrogen, Life Technologies Grand Island, N.Y.) was added and incubated in dark at room temperature for 1 h. After 1 h, 10 μL stop solution containing Terbium labeled antibody (4 nM) (# PV3529, Invitrogen, Life Technologies Grand Island, N.Y.) and EDTA (# E5134, Sigma, St-Louis, Mo.) (20 mM) in TR-FRET dilution buffer (# PV3574, Invitrogen, Life Technologies Grand Island, N.Y.) was added. Readings were taken in a Synergy Neo Plate reader (BioTek, Winooski) at single excitation of 340 nm and Dual emission at 495 nm and 520 nm respectively.
The % activity of test samples was calculated as (Sample−Min)×100/(Max−Min). [Max: DMSO control, complete reaction with enzyme with DMSO and Min: No enzyme with DMSO]. Percent inhibition (100-% activity) was fitted to the “four-parameter logistic model” in XLfit for determination of IC50 values.

MIA PaCa-2 = experiment: Cell viability assay (resazurin, 96 hr) in MIA PaCa-2; format: cell-based; details: Homo sapiens; MIA PaCa-2 pancreatic cell line, 96 hr exposure; read-out: MiaPaCa-2_Cell Viability_IC50
Experimental: as §1, §2

| SMILES | IC50 (Panc-1) | IC50 (MAPK14/p38α kinase; Table 3, read-out: IC50 (P38 alpha)) | IC50 (TGFBR1 (ALK5); Table 3, read-out: IC50 (ALK5)) | IC50 (MIA PaCa-2) | inhibition at 0.1 µM (MAPK14/p38α kinase; 100 nM concentration of compound, Table 4, read-out: Enzyme Activity MAPK14 (p38alpha) % Inh at 100 nM) | IC50 (TGFBR1 (ALK5); Table 4, read-out: ALK5 IC50) |
| --- | --- | --- | --- | --- | --- | --- |
| CC(C)c1cnc(-c2ccc(F)cc2)nc1Nc1ccnc2[nH]cc(N3CCNC[C@H]3C)c12 [Compound No. 8, N-(2-(4-fluorophenyl)-5-isopropylpyrimidin-4-yl)-3-(2-methylpiperazin-1-yl)-1H-pyrrolo [2,3-b] pyridin-4-amine hydrochloride] | > 30 µM | 61 nM | 95 nM | > 30 µM | – | – |
| CC(C)c1cnc(-c2ccc(F)cc2)nc1Nc1cccc2[nH]cc(C(=O)C(N)=O)c12 [Compound No. 28, 2-(4-(2-(4-fluorophenyl)-5-isopropylpyrimidin-4-ylamino)-1H-indol-3-yl)-2-oxoacetamide hydrochloride] | > 30 µM | – | – | > 30 µM | 21% | > 5000 nM |
